Reference: patent US20050281891A1, “Testosterone stimulant” (Ecobio, Inc., priority 2004, published 2005)

Tested on: systemic testosterone levels
Test: Testosterone stimulation in rats: iron, chitosan and iron chitosan chelate vs placebo
Type: in vivo, Sprague Dawley rats
Details: 8-week old rats, oral 200 μL twice a day for 7 days; 0.12 wt % iron lactate, 1 wt % chitosan or 1 wt % iron chitosan chelate
Experimental: The effects of an iron chitosan chelate, chitosan, and iron on systemic testosterone levels in test groups of 8-week old Sprague Dawley rats is observed and compared to a control group. Each of the groups includes 8 rats. The rats of each group are orally administered a liquid composition twice a day, where group 1 receives a carrier composition in the form of a placebo, group 2 receives the carrier enhanced with 200 μL of 0.12 wt % iron lactate, group 3 receives the carrier enhanced with 200 μL of 1 wt % chitosan having a weight average molecular weight of 19,500 Mw, and group 4 receives the carrier enhanced with 200 μL of 1 wt % iron chitosan chelate (chitosan weight average molecular weight 19,500 Mw). The effects of the iron, chitosan, and iron chitosan chelate in systemic testosterone levels are compared to the systemic testosterone levels of the rats administered with the carrier placebo alone. After 7 days of dosing the 4 rat groups twice per day, the impact of the test groups compared to the control group on the rats testosterone levels is recorded, and is set forth in Table 1.

For CC(O)C(=O)[O-].CC(O)C(=O)[O-].[Fe+2] (centres unmarked) [Iron, iron lactate], which “% Increase from Placebo” value is on record?
The value was “˜0%”.

And the “Testosterone Level” value?
Its value is 358.1 ± 23.6 (pg/100 μL).
